Assay results taken from patent US12296018B2, “Albumin binding peptide-drug (AlBiPeD) conjugates and methods of making and using same” (priority 2018, dated 2025).
Entries after “also recorded” stand apart in the source; their conditions may differ.

What was measured:
[1] = system: AsPC-1 pancreatic cancer cells; experiment: In vitro cytotoxicity (MTS, 72 h) AsPC-1; format: cell-based, human; conditions: 72 h incubation, Dox Equiv. concentration
Protocol: (§1) In vitro cytotoxicity C26 murine colon carcinoma cells and three different pancreatic cancer cell lines, BxPC-3, AsPC-1, and MIA PaCa-2, were used to study the in vitro cytotoxicity of ABD-DOX and Dox. Cells were cultured and grown as monolayers at 37° C. with C02 in a humidified incubator and were passaged at ˜80% confluency using 0.05% trypsin-EDTA (Invitrogen, Carlsbad, CA). C26, BxPC-3, AsPC-1, and MIA PaCa-2 cells were seeded in 96-well plates (5,000 cells/well) and incubated overnight. Three-fold serial dilutions of drug were then added to the wells in triplicate and also to control wells (media with no cells) to correct for the background Dox absorbance. After 72 h treatment, 20 μL MTS reagent was added to each well and was incubated for 3 h at 37° C., and the absorbance at 490 nm was measured using a Victor3 plate reader (Perkin Elmer, Boston, MA). Cell viability (%) was defined as the percentage of the absorbance of the drug-treated cells relative to buffer-treated cells and IC50 values were determined using logistic non-linear regression analysis with GraphPad Prism software. The IC50 was defined as the Dox Equiv. concentration of formulations resulting in 50% growth inhibition compared with a negative control, buffer-treated cells.

[2] = pH-dependent Dox release from ABD-Dox conjugate (size exclusion HPLC); format: physicochemical
Protocol: Drug release Dox release from the ABD-Dox conjugate was measured at pH 7.4 and 5.0, corresponding to the physiological pH and late endosomal pH, respectively. ABD-Dox in PBS (400 μM Dox Equiv.) was diluted with an equal volume of either 0.1 M Na—PO4, pH 7.4 buffer, 0.1 M Na-acetate, pH 5.0 buffer, incubated at 37° C. for 0, 0.25, 0.5, 1, 2, 4, 6, and 24 h, and neutralized using an equal volume of 0.1 M Na—PO4, pH 7.4 buffer. Samples were then analyzed by size exclusion HPLC using the same chromatography conditions as described above for the characterization of Dox conjugates and the percentage of released Dox was calculated by integrating the area under the peak corresponding to unbound Dox. The cumulative percent released Dox (F %, released) versus time was fit to a first order release model: F %, released=a[1−exp(−ln(2)t/t1/2)] where t is the time (h) after incubation, tia is the half-maximal release time (h), and a (%) is the maximum extent of drug release, using GraphPad Prism software (GraphPad, San Diego, CA).

[3] = system: C26 colon carcinoma tumors; experiment: In vivo tumor regression, syngeneic C26 model; set-up: species or system BALB/c mice
Protocol: In vivo tumor regression For in vivo tumor implantation, C26 cells at 5×10^5 cells in 30 μL Minimum Essential Medium (MEM) (Invitrogen, Carlsbad, CA) and MIA PaCa-2 cells at 2×10^6 cells in 50 μL 10:90 v/v MEM: Matrigel matrix (Corning Inc, Corning, New York) were inoculated in the right flank of normal and athymic nude BALB/c mice, respectively. Tumor cells were allowed to grow until the tumor volume, calculated as π/6×length×width^2, reached 75-100 mm^3 for C26 tumors and 100-125 mm^3 for MIA PaCa-2 tumors. Tumor bearing mice were then treated with ABD-Dox at 10 and 20 mg Dox Equiv.kg^−1 BW, AlDox at 20 mg Dox Equiv.kg^−1 BW, and free Dox at 10 mgkg^−1 BW. Tumor volumes and body weights were monitored for 100 days after treatment and mice displaying excessive tumor volume (>[…]), body weight loss (>15%), or ill health were euthanized. Tumor growth and survival data were analyzed by GraphPad Prism software. Survival curves were generated with the Kaplan-Meier method and compared with the log-rank (Mantel-Cox) test. Tumor growth data were compared with a paired one-way ANOVA followed by Tukey-Kramer (Tukey's) post-hoc test. P<0.05 was considered as statistically significant.
For in vivo tumor regression studies, a single dose of ABD-Dox was injected via tail vein at 10 mg Dox Equiv.kg^−1 BW (MTD of free Dox) and 20 mg Dox Equiv.kg^−1 BW (MTD of ABD-Dox) in separate cohorts of BALB/c mice with s.c. C26 tumors or nude mice with s.c. MIA Paca-2 tumors. Free Dox was injected at its MTD of 10 mgkg-1 BW, and AlDox was injected at 20 mg Dox Equiv.kg^−1 BW, a dose that was reported to be safe in previous studies. All animals were injected when the tumors were 75-100 mm; in size for C26 tumors and 100-125 mm^3 for MIA PaCa-2 tumors.

[4] = system: BxPC-3 pancreatic cancer cells; experiment: In vitro cytotoxicity (MTS, 72 h) BxPC-3; format: cell-based, human; conditions: 72 h incubation, Dox Equiv. concentration
Protocol: as §1

Aqueous solubility = format: physicochemical; conditions: pH 7.4 PBS
Protocol: To remove the ELP160 tag, the KEKE-ELP160-srt-ABD-Dox conjugate was buffer exchanged into sortase reaction buffer, and was reacted with (His)6-sortase A-ELP40 in the presence of a 50 fold molar excess of triglycine (FIG. 2A). The efficiency of the sortase reaction, defined as the percent conversion of ELP-ABD-Dox substrate to ABD-Dox, was determined by size exclusion HPLC and was calculated to be ≥85% (FIG. 3A). The ABD-Dox product was then separated from (His)6-sortase A-ELP40, the cleaved KEKE-ELP160 tag, and unreacted KEKE-ELP160-srt-ABD-Dox in the sortase reaction solution by preparative size exclusion chromatography (SEC). The number of Dox molecules conjugated per ABD (Dox/ABD molar ratio) was measured before the sortase reaction by dissolving the lyophilized KEKE-ELP160-srt-ABD-Dox conjugate in PBS and calculating the moles of KEKE-ELP160-srt-ABD-Dox and Dox gravimetrically and spectrophotometrically at 488 nm, respectively. 3-4 Dox molecules were attached to each KEKE-ELP160-srt-ABD-(CGG)8. However, following removing the ELP160 tag, the resulting ABD-Dox conjugate was too hydrophobic and insoluble in pH 7.4 PBS because of the high number of conjugated Dox molecules. […] Formulation of AlDox in acidic pH, however, is undesirable as it can trigger the premature, in vitro degradation of the hydrazone bond between Dox and EMCH, converting AlDox back to free Dox.

[5] = single dose 10 mg Dox Equiv.kg^−1 BW
[6] = single dose 20 mg Dox Equiv.kg^−1 BW

Substance: ABD-Dox (GLAEAKVLANRELDKYGVSDYYKNLINNAKTVEGVKALIDEILAALPCGGCGGCGGCGG)
- IC50 [1]: 15.2 µM
- drug released ([2]; pH 5.0, over 24 h, 37° C.): about 70%
- Dox release ([2]; pH 7.4, 37° C.): negligible; also recorded: low, basal level of release
- tumor disappearance ([3]; 10 mg Dox Equiv.kg^−1 BW): complete tumor disappearance within 2 weeks
- tumor recurrence in mice with eradicated tumors ([3]; 10 mg Dox Equiv.kg^−1 BW): 33%
- eradication of C26 tumors ([3]; 20 mg Dox Equiv.kg^−1 BW): incomplete eradication
- mice that did not survive over the 100-day course of study ([3]; 20 mg Dox Equiv.kg^−1 BW): 75%
- recurrence of the primary tumor ([3]; 20 mg Dox Equiv.kg^−1 BW): without recurrence of the primary tumor in any mice
- therapeutic efficacy vs AlDox in terms of overall survival ([3]; 20 mg Dox Equiv.kg^−1 BW): higher
- therapeutic efficacy vs AlDox with respect to tumor regression ([3]; 20 mg Dox Equiv.kg^−1 BW): equivalent
- survival compared with free Dox (10 mgkg^−1 BW) [3, 5]: superior efficacy
- tumor regression compared with free Dox (10 mgkg^−1 BW) [3, 5]: superior efficacy
- survival compared with free Dox (10 mgkg^−1 BW) [3, 6]: superior efficacy
- tumor regression compared with free Dox (10 mgkg^−1 BW) [3, 6]: superior efficacy
- IC50 [4]: 8.9 µM
- aqueous solubility (Aqueous solubility): up to 4 mg Dox Equiv.mL^−1
